Measured values taken from the NIST ThermoML archive (doi:10.1021/acs.jced.9b00776).
Numbers after ± are expanded uncertainties.

Experiments:
[1] = for mass density / viscosity: 100.9 kPa, Liquid; for mass density: Vibrating tube method; for viscosity: Cone and plate viscometry; for Glass transition temperature / Triple point temperature: DSC; for Triple point temperature: Crystal
[2] = Molar enthalpy of transition or fusion; conditions: Crystal; DSC

SMILES	mass density ([1]; 293.15 K) [kg/m3]	viscosity ([1]; 293.2 K) [mPa·s]	mass density ([1]; 298.15 K) [kg/m3]	viscosity ([1]; 298.2 K) [mPa·s]	mass density ([1]; 303.15 K) [kg/m3]	viscosity ([1]; 303.2 K) [mPa·s]	mass density ([1]; 313.15 K) [kg/m3]	viscosity ([1]; 313.2 K) [mPa·s]	mass density ([1]; 323.15 K) [kg/m3]	viscosity ([1]; 323.2 K) [mPa·s]	mass density ([1]; 333.15 K) [kg/m3]	viscosity ([1]; 333.2 K) [mPa·s]	mass density ([1]; 343.15 K) [kg/m3]	viscosity ([1]; 343.2 K) [mPa·s]	mass density ([1]; 353.15 K) [kg/m3]	viscosity ([1]; 353.2 K) [mPa·s]	Glass transition temperature [1] [°C]	Molar enthalpy of transition or fusion [2] [kcal/mol]	Triple point temperature [1] [K]
CC(C)n1cc[n+](C)c1.O=S(=O)([N-]S(=O)(=O)C(F)(F)C(F)(F)F)C(F)(F)C(F)(F)F	1556.7 ± 2	172.6 ± 14	1551.3 ± 2	121.4 ± 10	1546 ± 2	91.7 ± 7.5	1535.5 ± 2	53 ± 4.3	1524.6 ± 2	38 ± 3.1	1514 ± 2	26.4 ± 2.1	1503.5 ± 2	19.1 ± 1.5	1492.8 ± 2	14.4 ± 1.2	-75.7 ± 1.8		
C[n+]1ccn(C(C)(C)C)c1.O=S(=O)([N-]S(=O)(=O)C(F)(F)C(F)(F)F)C(F)(F)C(F)(F)F	1530.8 ± 2	571.1 ± 53	1525.2 ± 2	367.2 ± 33	1519.9 ± 2	246.7 ± 21	1509.6 ± 2	126.1 ± 10	1498.9 ± 2	80.9 ± 6.6	1488.6 ± 2	50.7 ± 4.1	1478.4 ± 2	33.9 ± 2.7	1467.8 ± 2	23.8 ± 1.9	-58.0 ± 1.8	3.99 ± 0.12	294.3 ± 1.8
C[n+]1ccn(C(C)(C)C)c1.F[P-](F)(F)(F)(F)F [1-tert-butyl-3-methylimidazolium hexafluorophosphate]																		5.52 ± 0.167	421 ± 1.8
C[n+]1ccn(C(C)(C)C)c1.O=S(=O)([N-]S(=O)(=O)C(F)(F)F)C(F)(F)F	1451.5 ± 2	167.3 ± 14	1446.6 ± 2	121.4 ± 10	1442 ± 2	91.5 ± 7.4	1432.8 ± 2	55.6 ± 4.5	1423.1 ± 2	37.5 ± 3	1413.8 ± 2	26.2 ± 2.1	1404.5 ± 2	19 ± 1.5	1395 ± 2	14.5 ± 1.2		5.47 ± 0.167	280.4 ± 1.8
CC(C)[n+]1ccn(C)c1.[I-] [1-methyl-3-(1-methylethyl)imidazolium iodide]																		3.9 ± 0.12	383.4 ± 1.8
CC(C)[n+]1ccn(C)c1.O=S(=O)([N-]S(=O)(=O)C(F)(F)F)C(F)(F)F	1481.9 ± 2	58.3 ± 4.7	1476.8 ± 2	45.5 ± 3.7	1472 ± 2	36.9 ± 3	1462.5 ± 2	24.5 ± 2	1452.4 ± 2	19.3 ± 1.6	1442.9 ± 2	14.5 ± 1.2	1433.4 ± 2	11.2 ± 0.9	1423.7 ± 2	8.9 ± 0.7		5.78 ± 0.167	283.5 ± 1.8
CC(C)[n+]1ccn(C)c1.F[P-](F)(F)(F)(F)F [1-methyl-3-(1-methylethyl)imidazolium hexafluorophosphate]																		3.75 ± 0.12	374 ± 1.8
C[n+]1ccn(C(C)(C)C)c1.[I-] [1-tert-butyl-3-methylimidazolium iodide]																		3.63 ± 0.12	432.7 ± 1.8
